Patent publication US20220220106A1, “QUINOLINE COMPOUNDS AND PHARMACEUTICAL COMPOSITIONS AND USES THEREOF” (Academy of Military Medical Sciences, priority 2019, published 2022)

Key:
RD cells = assay: Detection of cytotoxicity in RD cells (CellTiter-Glo); type: cell-based; settings: 4 days, CellTiter-Glo, median toxic dose
Description: Detection of Cytotoxicity:
(1) The compound to be tested was diluted to a concentration of 400 μM with the cell maintenance solution, and 3-fold gradient dilution was carried out to obtain 10 concentrations in total.
(2) The diluted compound was added to a 96-well plate with white wall and transparent bottom, with 100 μL per well. An equal volume of the cell maintenance solution was added to the cell control group.
(3) RD cells were inoculated into the above 96-well plate at a concentration of 1*10^5/mL, with 100 μL per well, to reach a final volume of 200 μL per well, and the final concentration of drug was 0.5 times the pretreatment concentration.
(4) The RD cells were cultured at 37° C. for 4 days for testing.
(5) The Buffer of CellTiter-Glo® luminescent cell viability assay reagent was mixed with the substrate in the dark to prepare a working solution.
(§1) (6) The culture medium in the plate was discarded, the plate was dried by patting, 100 μL of the detection reagent was added to each well, and the 96-well plate was shaken on an orbital shaker for 4 minutes to induce cell lysis. After keeping in the dark and subjecting to signal stabilization for 15 minutes, the chemiluminescence unit was detected, and the plate reading program was performed according to the CellTiter-Glo preset program.
(§2) The formula for calculating the inhibition rates of drug at different dilution degrees was as follows: inhibition rate (%)=(average value of cell control group−value of experimental group)/(average value of cell control group−minimum value of experimental group)*100
(§3) The inhibition rate-concentration curve was fitted to S-curve by using origin8.0 software, and the IC50 value of the compound to be tested was calculated. The same method was used to calculate the TD50 value, and the selection index SI=TD50/IC50 was calculated according to the half maximal inhibitory concentration IC50 and the median toxic dose TD50.

[1] = test system: Enterovirus 71 (EV71) H strain; assay: In vitro anti-EV71 activity (antiviral activity in RD cells, CellTiter-Glo); type: cell-based; settings: for IC50: Enterovirus A, 96 h, EV71 H strain, RD cells, 4 days, CellTiter-Glo, read-out: IC50; for in vitro anti-EV71 activity, in words: EV71, RD cells
Description: According to the mass and molecular weight of the compound to be tested, the compound to be tested was dissolved to 100 mM (mmol/L) with DMSO.
Detection of Antiviral Activity:
(1) First, the compound to be tested was diluted to 800 μM with cell maintenance solution (DMEM+2% FBS, Gibco, catalog numbers: 11995-065, 1600-044), and three-fold gradient dilution was performed to prepare 10 concentrations in total. The diluted compound was added to a 96-well plate with white wall and transparent bottom, 50 μl per well. To both the cell control group and the virus control group, an equal volume of the cell maintenance solution was added.
(2) EV71 virus (purchased from ATCC) was taken out from the −80° C. refrigerator and equilibrated to room temperature.
(3) The virus seed was diluted with a virus growth solution (DMEM+2% FBS, Gibco, catalog numbers: 11995-065, 1600-044) to 100TCID50, the diluted virus seed was added to the 96-well plate of (1), with […] per well. The same volume of the virus growth solution was added to the cell control group.
(4) RD cells (purchased from ATCC) were inoculated at a concentration of 1*10^5/mL into the 96-well plate of (1), with 100 μL per well, to reach a final volume of 200 μL per well. The final concentration of drug was 0.25 times the initial concentration.
(5) RD cells were cultured at 37° C. for 4 days for testing.
(6) The Buffer of CellTiter-Glo® luminescent cell viability assay reagent (Promega) was mixed with the substrate in the dark to prepare a working solution.
as §1, with “(7)” for “(6)”, “detected by using MD5 microplate reader (Molecular Devices),” for “detected,”
The inhibition rate-concentration curve was fitted to S-curve by using origin8.0 software to calculate the IC50 value of the compound to be tested.
as §2, §3

SMILES | IC50 [1] | melting point | TD50 (RD cells) | in vitro anti-EV71 activity, in words [1]
O=c1ccc2cnc3ccc(Nc4ccc(Cl)nc4)cc3c2n1-c1cccc(C(F)(F)F)c1 [HTL-6-21, 9-[3-(6-chloropyridyl)]imino-2-oxo-1-[3-(trifluoromethyl)phenyl]-1,2-dihydrobenzo[h][1,6]naphthyridine] | > 200 µM | 137 to 138 °C | 20.75 ± 2.11 µM | –
Cc1ccc(Nc2ccc3ncc4ccc(=O)n(-c5cccc(C(F)(F)F)c5)c4c3c2)cc1C [HTL-6-17, 9-(3,4-dimethylphenyl)imino-2-oxo-1-[3-(trifluoromethyl)phenyl]-1,2-dihydrobenzo[h][1,6]naphthyridine] | > 200 µM | 140 to 141 °C | 6.81 ± 1.03 µM | –
CC(C)c1ccc(-c2ccc3ncc4oc(=O)n(-c5cccc(C(F)(F)F)c5)c4c3c2)cc1 [HTL-5-35, 8-(4-isopropyl)phenyl-1-[3-(trifluoromethyl)phenyl]oxazolo[5,4-c]quinolin-2(1H)-one] | > 200 µM | 219 to 220 °C | 69.36 ± 0.28 µM | –
O=c1ccc2cnc3ccc(Nc4ccc(F)nc4)cc3c2n1-c1cccc(C(F)(F)F)c1 [HTL-6-20, 9-[3-(6-fluoropyridyl)]imino-2-oxo-1-[3-(trifluoromethyl)phenyl]-1,2-dihydrobenzo[h][1,6]naphthyridine] | > 200 µM | 232 to 233 °C | 59.31 ± 3.98 µM | –
CC(=O)/C=C/c1cnc2ccc(-c3cccc(N)c3)cc2c1Nc1cccc(C(F)(F)F)c1 [HTL-2-42, (E)-6-(3-aminophenyl)-4-[3-(trifluoromethyl)phenyl]aminoquinoline-3-butenone] | > 200 µM | 184 to 186 °C | >200 µM | –
C#CCNc1ccc(-c2ccc3ncc4ccc(=O)n(-c5cccc(C(F)(F)F)c5)c4c3c2)cn1 [HTL-7-29, 9-[3-(6-propargylamino)pyridyl]-2-oxo-1-[3-(trifluoromethyl)phenyl]-1,2-dihydrobenzo[h][1,6]naphthyridine] | 0.09 µM | 139 to 141 °C | 0.29 ± 0.03 µM | –
C=CCNc1ccc(-c2ccc3ncc4ccc(=O)n(-c5cccc(C(F)(F)F)c5)c4c3c2)cn1 [HTL-7-28, 9-[3-(6-allylamino)pyridyl]-2-oxo-1-[3-(trifluoromethyl)phenyl]-1,2-dihydrobenzo[h][1,6]naphthyridine] | 0.09 ± 0.01 µM | 142 to 146 °C | 0.23 ± 0.01 µM | –
CC(=O)/C=C/c1cnc2ccc(-c3ccncc3)cc2c1Nc1cccc(C(F)(F)F)c1 [HTL-3-04, (E)-6-(4-pyridyl)-4-[3-(trifluoromethyl)phenyl]aminoquinoline-3-butenone] | > 200 µM | 192 to 195 °C | >200 µM | –
O=c1oc2cnc3ccc(-c4ccc(F)nc4)cc3c2n1-c1cccc(C(F)(F)F)c1 [HTL-5-28, 8-[3-(6-fluoro)pyridyl]-1-[3-(trifluoromethyl)phenyl]oxazolo[5,4-c]quinolin-2(1H)-one] | > 200 µM | 262 to 263 °C | >200 µM | –
COc1cncc(-c2ccc3ncc(/C=C/C(C)=O)c(Nc4cccc(C(F)(F)F)c4)c3c2)c1 [HTL-3-07, (E)-6-[3-(5-methoxy)pyridyl]-4-[3-(trifluoromethyl)phenyl]aminoquinoline-3-butenone] | > 200 µM | 164 to 167 °C | >200 µM | –
CCOC(=O)/C=C/c1ccc2ncc3oc(=O)n(-c4cccc(C(F)(F)F)c4)c3c2c1 [WSX-1-13, (E)-8-(2-ethoxycarbonyl-vinyl)-1-[3-(trifluoromethyl)phenyl]oxazolo[5,4-c]quinolin-2(1H)-one] | 100 ± 2.34 µM | 221 to 224 °C | 73.88 ± 3.52 µM | weak inhibitory activity

More lines, main results first:

IC50 [1] | melting point | SMILES | TD50 (RD cells) | in vitro anti-EV71 activity, in words [1]
> 200 µM | 141 to 142 °C | CC(C)(C)c1ccc(Nc2ccc3ncc4ccc(=O)n(-c5cccc(C(F)(F)F)c5)c4c3c2)cc1 [HTL-6-18, 9-(4-tert-butylphenyl)imino-2-oxo-1-[3-(trifluoromethyl)phenyl]-1,2-dihydrobenzo[h][1,6]naphthyridine] | 7.04 ± 0.68 µM | –
1.75 ± 0.41 µM | 156 to 158 °C | Nc1cncc(Nc2ccc3ncc4ccc(=O)n(-c5cccc(C(F)(F)F)c5)c4c3c2)c1 [HTL-6-29, 9-[3-(5-aminopyridyl)]imino-2-oxo-1-[3-(trifluoromethyl)phenyl]-1,2-dihydrobenzo[h][1,6]naphthyridine] | 28.65 ± 1.67 µM | moderate activity
> 200 µM | 151 to 154 °C | CC(=O)/C=C/c1cnc2ccc(-c3ccoc3)cc2c1Nc1cccc(C(F)(F)F)c1 [HTL-3-22, (E)-6-(3-furyl)-4-[3-(trifluoromethyl)phenyl]aminoquinoline-3-butenone] | 1.55 ± 1.03 µM | –
> 200 µM | 218 to 222 °C | CC(=O)/C=C/c1cnc2ccc(-c3ccc(O)cc3)cc2c1Nc1cccc(C(F)(F)F)c1 [HTL-3-11, (E)-6-(4-hydroxy)phenyl-4-[3-(trifluoromethyl)phenyl]aminoquinoline-3-butenone] | >200 µM | –
> 200 µM | 184 to 185 °C | CCOc1cccc(-c2ccc3ncc(/C=C/C(C)=O)c(Nc4cccc(C(F)(F)F)c4)c3c2)c1 [HTL-3-16, (E)-6-(3-ethoxy)phenyl-4-[3-(trifluoromethyl)phenyl]aminoquinoline-3-butenone] | 0.83 ± 0.79 µM | –
> 200 µM | 209 to 210 °C | CC(=O)/C=C/c1cnc2ccc(-c3ccc(F)c(C)c3)cc2c1Nc1cccc(C(F)(F)F)c1 [HTL-3-32, (E)-6-(4-fluoro-3-methyl)phenyl-4-[3-(trifluoromethyl)phenyl]aminoquinoline-3-butenone] | 1.52 ± 0.87 µM | –
> 200 µM | 173 to 174 °C | CC(=O)/C=C/c1cnc2ccc(-c3ccc(C#N)cc3)cc2c1Nc1cccc(C(F)(F)F)c1 [HTL-3-15, (E)-6-(4-cyano)phenyl-4-[3-(trifluoromethyl)phenyl]aminoquinoline-3-butenone] | >200 µM | –
> 200 µM | 162 to 164 °C | CCOC(=O)CC/C=C/c1ccc2ncc3oc(=O)n(-c4cccc(C(F)(F)F)c4)c3c2c1 [HTL-6-38, (E)-8-(4-ethoxycarbonyl-but-1-enyl)-1-[3-(trifluoromethyl)phenyl]oxazolo [5,4-c]quinolin-2(1H)-one] | 22.74 ± 0.01 µM | –
> 200 µM | 176 to 179 °C | O=c1ccc2cnc3ccc(Nc4ccc(F)cc4)cc3c2n1-c1cccc(C(F)(F)F)c1 [HTL-6-23, 9-(4-fluorophenyl)imino-2-oxo-1-[3-(trifluoromethyl)phenyl]-1,2-dihydrobenzo[h][1,6]naphthyridine] | 7.22 ± 0.47 µM | –
> 200 µM | 173 to 176 °C | CC(=O)/C=C/c1cnc2ccc(-c3cnc4ccccc4c3)cc2c1Nc1cccc(C(F)(F)F)c1 [HTL-3-25, (E)-6-(3-quinolyl)-4-[3-(trifluoromethyl)phenyl]aminoquinoline-3-butenone] | 0.68 ± 0.21 µM | –
